According to PMC3914206:

Assays:
panel of 442 kinases [1] = target: T1, panel of 442 kinases (Homo sapiens, UniProt P51956); type: binding; conditions: Compound Concentration 10 µM
T1 construct: purchased KINOMEscan
T1 sequence (P51956 1-506): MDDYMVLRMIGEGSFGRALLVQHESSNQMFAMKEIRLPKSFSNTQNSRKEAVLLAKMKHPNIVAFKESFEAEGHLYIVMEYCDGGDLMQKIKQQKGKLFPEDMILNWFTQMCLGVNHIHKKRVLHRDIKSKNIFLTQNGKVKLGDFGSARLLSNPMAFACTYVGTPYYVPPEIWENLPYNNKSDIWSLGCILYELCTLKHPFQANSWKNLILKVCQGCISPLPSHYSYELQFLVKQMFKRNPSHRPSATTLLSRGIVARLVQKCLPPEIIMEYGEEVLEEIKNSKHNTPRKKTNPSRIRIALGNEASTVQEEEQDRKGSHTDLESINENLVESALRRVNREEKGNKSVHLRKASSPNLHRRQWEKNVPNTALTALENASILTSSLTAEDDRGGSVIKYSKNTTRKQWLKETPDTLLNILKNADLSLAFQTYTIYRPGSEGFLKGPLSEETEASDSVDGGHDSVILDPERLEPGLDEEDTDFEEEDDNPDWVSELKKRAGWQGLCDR
Excerpt: (§1) We assessed the selectivity of members of this scaffold using the KINOMEscan methodology across a near comprehensive panel of 442 kinases [[18,27]].

panel of 442 kinases [2] = target: T2, panel of 442 kinases (Homo sapiens, UniProt Q12851); type: binding; conditions: Compound Concentration 10 µM
T2 construct: purchased KINOMEscan
T2 sequence (Q12851 1-820): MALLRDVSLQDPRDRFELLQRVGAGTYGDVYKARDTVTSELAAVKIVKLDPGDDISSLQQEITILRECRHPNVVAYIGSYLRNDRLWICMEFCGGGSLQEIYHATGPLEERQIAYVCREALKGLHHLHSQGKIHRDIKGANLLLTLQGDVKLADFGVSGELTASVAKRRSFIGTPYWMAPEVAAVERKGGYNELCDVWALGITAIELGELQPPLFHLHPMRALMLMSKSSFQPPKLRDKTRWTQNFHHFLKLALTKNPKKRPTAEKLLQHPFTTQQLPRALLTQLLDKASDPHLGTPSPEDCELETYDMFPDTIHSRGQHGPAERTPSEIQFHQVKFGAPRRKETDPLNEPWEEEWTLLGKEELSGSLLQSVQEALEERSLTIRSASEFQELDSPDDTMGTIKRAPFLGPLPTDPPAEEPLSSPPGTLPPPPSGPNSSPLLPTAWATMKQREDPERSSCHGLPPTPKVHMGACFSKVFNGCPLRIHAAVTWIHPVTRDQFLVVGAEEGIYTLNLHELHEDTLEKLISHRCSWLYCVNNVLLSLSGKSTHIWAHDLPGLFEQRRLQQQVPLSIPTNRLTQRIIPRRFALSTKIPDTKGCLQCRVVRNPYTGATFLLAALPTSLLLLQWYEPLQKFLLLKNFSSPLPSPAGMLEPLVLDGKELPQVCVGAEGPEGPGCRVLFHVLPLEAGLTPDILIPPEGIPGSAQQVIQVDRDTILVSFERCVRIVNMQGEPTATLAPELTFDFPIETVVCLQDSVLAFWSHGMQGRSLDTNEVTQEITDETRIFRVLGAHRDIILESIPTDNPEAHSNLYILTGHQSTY
Excerpt: as §1

| Compound | KINOMEscan: NEK3 (panel of 442 kinases [1]) | KINOMEscan: MAP4K2 (panel of 442 kinases [2]) |
| --- | --- | --- |
| COc1cc(C(=O)N2CCC(N3CCN(C)CC3)CC2)ccc1Nc1ncc2c(n1)N(C)c1ccccc1C(=O)N2C [15 (LRRK2-IN-1)] | 100 | 100 |
| COc1cc(C(=O)N2CCC(N3CCN(C)CC3)CC2)ccc1Nc1ncc2c(n1)N(C1CCCC1)c1ccccc1C(=O)N2C [Compound 25, 11-cyclopentyl-2-((2-methoxy-4-(4-(4-methylpiperazin-1-yl)piperidine-1-carbonyl)phenyl)amino)-5-methyl-5H-benzo[e]pyrimido[5,4-b][1,4]diazepin-6(11H)-one] | 100 | 100 |
| CCOc1cc(C(=O)N2CCC(N3CCN(C)CC3)CC2)ccc1Nc1ncc2c(n1)N(C1CCCC1)c1ccccc1C(=O)N2C [Compound 26] | 83 | 92 |
